Assay results reported in PubChem BioAssay (NCI).
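Assay format: 96-well plates, 48-hour exposure. At the TGI there is no net growth.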

Experiments:
Assay in all cases: DTP human tumour cell line panel, 48 h
[1] = tested on: CCRF-CEM leukemia
[2] = tested on: SK-MEL-2 melanoma
[3] = tested on: SK-MEL-5 melanoma
[4] = tested on: SF-295 CNS
[5] = tested on: NCI-H522 lung
[6] = tested on: HCT-116 colon
[7] = tested on: SNB-75 CNS
[8] = tested on: OVCAR-3 ovarian
[9] = tested on: HS 578T breast
[10] = tested on: MOLT-4 leukemia
[11] = tested on: TK-10 renal
[12] = tested on: LOX IMVI melanoma
[13] = tested on: A498 renal
[14] = tested on: HL-60(TB) leukemia
[15] = tested on: NCI-H23 lung
[16] = tested on: M14 melanoma
[17] = tested on: RXF 393 renal
[18] = tested on: KM12 colon
[19] = tested on: HOP-62 NSCLC
[20] = tested on: MDA-MB-231 breast
[21] = tested on: SW-620 colon
[22] = tested on: MCF7 breast
[23] = tested on: SR leukemia
[24] = tested on: A549 NSCLC
[25] = tested on: SK-OV-3 ovarian
[26] = tested on: NCI/ADR-RES ovarian
[27] = tested on: NCI-H226 lung
[28] = tested on: MALME-3M melanoma
[29] = tested on: SF-268 CNS
[30] = tested on: HOP-92 NSCLC
[31] = tested on: SNB-19 CNS
[32] = tested on: PC-3 prostate
[33] = tested on: CAKI-1 renal
[34] = tested on: K-562 leukemia
[35] = tested on: HCC-2998 colon
[36] = tested on: MDA-MB-435
[37] = tested on: DU-145 prostate
[38] = tested on: SF-539 CNS
[39] = tested on: NCI-H460 lung
[40] = tested on: ACHN renal
[41] = tested on: UO-31 renal
[42] = tested on: 786-0 renal
[43] = tested on: HCT-15 colon
[44] = tested on: BT-549 breast
[45] = tested on: RPMI-8226 leukemia
[46] = tested on: SN12C renal
[47] = tested on: UACC-257 melanoma
[48] = tested on: MDA-N
[49] = tested on: UACC-62 melanoma
[50] = tested on: EKVX NSCLC
[51] = tested on: U251 CNS
[52] = tested on: OVCAR-4 ovarian
[53] = tested on: SK-MEL-28 melanoma
[54] = tested on: HT29 colon
[55] = tested on: IGROV1 ovarian
[56] = tested on: COLO 205 colon
[57] = tested on: OVCAR-8 ovarian
[58] = tested on: OVCAR-5 ovarian

CCOC(=O)C1=C(Cl)c2cccnc2C1=O
TGI [1]: > 100 µM | TGI [2]: > 100 µM | TGI [3]: > 100 µM | TGI [4]: > 100 µM | TGI [5]: > 100 µM | TGI [6]: > 100 µM | TGI [7]: 88.3 µM | TGI [8]: 43.7 µM | TGI [9]: 77 µM | TGI [10]: > 100 µM | TGI [11]: > 100 µM | TGI [12]: 72.7 µM | TGI [13]: > 100 µM | TGI [14]: > 100 µM | TGI [15]: 31.6 µM | TGI [16]: > 100 µM | TGI [17]: > 100 µM | TGI [18]: > 100 µM | TGI [19]: > 100 µM | TGI [20]: > 100 µM | TGI [21]: > 100 µM | TGI [22]: > 100 µM | TGI [23]: 37.9 µM | TGI [24]: > 100 µM | TGI [25]: > 100 µM | TGI [26]: > 100 µM | TGI [27]: > 100 µM | TGI [28]: > 100 µM | TGI [29]: > 100 µM | TGI [30]: > 100 µM | TGI [31]: > 100 µM | TGI [32]: > 100 µM | TGI [33]: > 100 µM | TGI [34]: > 100 µM | TGI [35]: > 100 µM | TGI [36]: 64.7 µM | TGI [37]: 55.6 µM | TGI [38]: > 100 µM | TGI [39]: > 100 µM | TGI [40]: > 100 µM | TGI [41]: > 100 µM | TGI [42]: > 100 µM | TGI [43]: > 100 µM | TGI [44]: > 100 µM | TGI [45]: > 100 µM | TGI [46]: > 100 µM | TGI [47]: > 100 µM | TGI [48]: > 100 µM | TGI [49]: > 100 µM | TGI [50]: > 100 µM | TGI [51]: > 100 µM | TGI [52]: > 100 µM | TGI [53]: > 100 µM | TGI [54]: > 100 µM | TGI [55]: > 100 µM | TGI [56]: > 100 µM

O=[N+]([O-])c1ccc2c(c1)Sc1ccccc1N2
TGI [1]: > 100 µM | TGI [3]: > 100 µM | TGI [4]: > 100 µM | TGI [5]: > 100 µM | TGI [6]: > 100 µM | TGI [7]: 81.9 µM | TGI [8]: > 100 µM | TGI [9]: > 100 µM | TGI [10]: > 100 µM | TGI [11]: > 100 µM | TGI [12]: > 100 µM | TGI [13]: > 100 µM | TGI [14]: > 100 µM | TGI [15]: > 100 µM | TGI [57]: > 100 µM | TGI [17]: > 100 µM | TGI [18]: > 100 µM | TGI [19]: > 100 µM | TGI [20]: > 100 µM | TGI [21]: > 100 µM | TGI [22]: > 100 µM | TGI [23]: > 100 µM | TGI [24]: > 100 µM | TGI [26]: > 100 µM | TGI [27]: > 100 µM | TGI [28]: > 100 µM | TGI [29]: > 100 µM | TGI [58]: > 100 µM | TGI [30]: > 100 µM | TGI [31]: > 100 µM | TGI [32]: > 100 µM | TGI [33]: > 100 µM | TGI [34]: > 100 µM | TGI [35]: > 100 µM | TGI [36]: > 100 µM | TGI [37]: > 100 µM | TGI [38]: > 100 µM | TGI [39]: > 100 µM | TGI [40]: > 100 µM | TGI [41]: > 100 µM | TGI [42]: > 100 µM | TGI [43]: > 100 µM | TGI [44]: > 100 µM | TGI [45]: > 100 µM | TGI [46]: > 100 µM | TGI [47]: > 100 µM | TGI [48]: > 100 µM | TGI [50]: > 100 µM | TGI [51]: > 100 µM | TGI [52]: > 100 µM | TGI [53]: > 100 µM | TGI [54]: > 100 µM | TGI [55]: > 100 µM | TGI [56]: > 100 µM

CC(C)OC(=O)C1=C2c3ncccc3C(=O)N2[C@@H](Cl)[C@H](Cl)[C@H]1Cl
TGI [2]: > 100 µM | TGI [3]: > 100 µM | TGI [4]: > 100 µM | TGI [5]: > 100 µM | TGI [6]: > 100 µM | TGI [8]: > 100 µM | TGI [9]: > 100 µM | TGI [10]: > 100 µM | TGI [11]: > 100 µM | TGI [12]: > 100 µM | TGI [13]: > 100 µM | TGI [14]: > 100 µM | TGI [15]: > 100 µM | TGI [57]: > 100 µM | TGI [16]: > 100 µM | TGI [17]: > 100 µM | TGI [18]: > 100 µM | TGI [19]: > 100 µM | TGI [20]: > 100 µM | TGI [21]: > 100 µM | TGI [22]: > 100 µM | TGI [23]: 93.8 µM | TGI [24]: > 100 µM | TGI [26]: > 100 µM | TGI [27]: > 100 µM | TGI [28]: > 100 µM | TGI [29]: > 100 µM | TGI [58]: > 100 µM | TGI [30]: > 100 µM | TGI [31]: > 100 µM | TGI [32]: > 100 µM | TGI [33]: > 100 µM | TGI [34]: > 100 µM | TGI [35]: > 100 µM | TGI [36]: > 100 µM | TGI [37]: > 100 µM | TGI [38]: > 100 µM | TGI [39]: > 100 µM | TGI [40]: > 100 µM | TGI [41]: > 100 µM | TGI [42]: > 100 µM | TGI [43]: > 100 µM | TGI [44]: > 100 µM | TGI [45]: > 100 µM | TGI [46]: 85.9 µM | TGI [47]: > 100 µM | TGI [48]: > 100 µM | TGI [49]: > 100 µM | TGI [50]: > 100 µM | TGI [51]: > 100 µM | TGI [52]: > 100 µM | TGI [53]: > 100 µM | TGI [54]: > 100 µM | TGI [55]: > 100 µM | TGI [56]: > 100 µM
